Measured values taken from PubChem BioAssay AID1963864 (Molecular Pharmacology Branch, DTP, NCI, 2024).

Tested on: KRAS PDC multicell spheroid viability
Test: Anticancer human tumor 521955-158-R6-J3-PDC patient-derived pancreatic carcinoma cell line growth inhibition [KRAS2]
Conditions: for IC50: curve of first compound; for viability, T/C: stronger effect = lower value
Method in brief: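 Combination screen of spheroid viability in tumor-cell co-cultures with endothelial (HUVEC) and mesenchymal stem cell stroma. Each agent was tested in half-log dilutions, topping at clinical Cmax or at 10 microM without a known Cmax.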

[1] = second compound 0.1 µM, first compound 0.01 µM
[2] = second compound 0.1 µM, first compound 0.0316 µM
[3] = second compound 0.1 µM, first compound 0.1 µM
[4] = second compound 0.1 µM, first compound 0.316 µM
[5] = second compound 0.1 µM, first compound 1 µM
[6] = second compound 0.1 µM, first compound 3.16 µM
[7] = second compound 0.316 µM, first compound 0.01 µM
[8] = second compound 0.316 µM, first compound 0.0316 µM
[9] = second compound 0.316 µM, first compound 0.1 µM
[10] = second compound 0.316 µM, first compound 0.316 µM
[11] = second compound 0.316 µM, first compound 1 µM
[12] = second compound 0.316 µM, first compound 3.16 µM
[13] = second compound 1 µM, first compound 0.01 µM
[14] = second compound 1 µM, first compound 0.0316 µM
[15] = second compound 1 µM, first compound 0.1 µM
[16] = second compound 1 µM, first compound 0.316 µM
[17] = second compound 1 µM, first compound 1 µM
[18] = second compound 1 µM, first compound 3.16 µM
[19] = second compound 3.16 µM, first compound 0.01 µM
[20] = second compound 3.16 µM, first compound 0.0316 µM
[21] = second compound 3.16 µM, first compound 0.1 µM
[22] = second compound 3.16 µM, first compound 0.316 µM
[23] = second compound 3.16 µM, first compound 1 µM
[24] = second compound 3.16 µM, first compound 3.16 µM
[25] = second compound 10 µM, first compound 0.0316 µM
[26] = second compound 10 µM, first compound 0.1 µM
[27] = second compound 10 µM, first compound 0.316 µM
[28] = second compound 10 µM, first compound 1 µM
[29] = second compound 10 µM, first compound 3.16 µM
[30] = second compound 0.1 µM, first compound 10 µM
[31] = second compound 0.316 µM, first compound 10 µM
[32] = second compound 1 µM, first compound 10 µM
[33] = second compound 3.16 µM, first compound 10 µM
[34] = second compound 10 µM, first compound 10 µM
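Also: drug exposure lasted seven days.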
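For viability, T/C in this document: 100% = DMSO vehicle wells and lower means fewer viable cells.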

SMILES	IC50 (second compound 0.1 µM)	IC50 (second compound 0.316 µM)	IC50 (second compound 1 µM)	IC50 (second compound 3.16 µM)	viability, T/C [2]	viability, T/C [3]	viability, T/C [4]	viability, T/C [5]	viability, T/C [6]	viability, T/C [8]	viability, T/C [9]	viability, T/C [10]	viability, T/C [11]	viability, T/C [12]	viability, T/C [14]	viability, T/C [15]	viability, T/C [16]	viability, T/C [17]	viability, T/C [18]	viability, T/C [20]	other results
CC1COCCN1c1cc(-c2ccnn2C)c2ccnc(-c3ccn[nH]3)c2n1 (stereo not given) + C=CC(=O)N1CCN(c2nc(=O)n(-c3c(C)ccnc3C(C)C)c3nc(-c4c(O)cccc4F)c(F)cc23)C(C)C1	> 3.16 µM	> 3.16 µM	> 3.16 µM	> 3.16 µM	91%	76.7%	77.9%	73%	82.7%	98.4%	87.8%	95.1%	88%	91.9%	111%	96%	84.5%	79.6%	91.9%	96.9%	IC50 (second compound 10 µM): > 3.16 µM; viability, T/C [1]: 97.3%; viability, T/C [7]: 95%; viability, T/C [13]: 91.7%; viability, T/C [19]: 88.4%; viability, T/C [21]: 88.4%; viability, T/C [22]: 79.3%; viability, T/C [23]: 69.4%; viability, T/C [24]: 82.2%; viability, T/C (second compound 10 µM, first compound 0.01 µM): 77.6%; viability, T/C [25]: 69.5%; viability, T/C [26]: 71%; viability, T/C [27]: 57.2%; viability, T/C [28]: 67.2%; viability, T/C [29]: 66.9%
CC1OCC2(CCN(c3cnc(Sc4ccnc(N)c4Cl)c(N)n3)CC2)C1N (stereo not given) + C=CC(=O)N1CCN(c2nc(=O)n(-c3c(C)ccnc3C(C)C)c3nc(-c4c(O)cccc4F)c(F)cc23)C(C)C1	> 10 µM	> 10 µM	> 10 µM	> 10 µM	99.6%	93.6%	99.6%	92%	106%	97.3%	94.4%	91.9%	96%	113%	98.7%	103%	102%	90.4%	124%	97.7%	IC50 (second compound 10 µM): > 10 µM; viability, T/C [30]: 128%; viability, T/C [31]: 116%; viability, T/C [32]: 120%; viability, T/C [21]: 95.9%; viability, T/C [22]: 91.8%; viability, T/C [23]: 81.3%; viability, T/C [24]: 106%; viability, T/C [33]: 108%; viability, T/C [25]: 75%; viability, T/C [26]: 75%; viability, T/C [27]: 62.5%; viability, T/C [28]: 54.8%; viability, T/C [29]: 70.4%; viability, T/C [34]: 79%
CCNC(=O)CC1N=C(c2ccc(Cl)cc2)c2cc(OC)ccc2-n2c(C)nnc21 (stereo not given) + C=CC(=O)N1CCN(c2nc(=O)n(-c3c(C)ccnc3C(C)C)c3nc(-c4c(O)cccc4F)c(F)cc23)C(C)C1	> 10 µM	> 10 µM	> 10 µM	0.93 µM	88.2%	93.7%	79.9%	78.5%	81.6%	103%	105%	79.3%	72.2%	83.3%	112%	108%	83.2%	81.1%	66.5%	89.3%	IC50 (second compound 10 µM): 0.266 µM; viability, T/C [30]: 78.6%; viability, T/C [31]: 70.6%; viability, T/C [32]: 68.7%; viability, T/C [21]: 83%; viability, T/C [22]: 65.6%; viability, T/C [23]: 49.8%; viability, T/C [24]: 40.7%; viability, T/C [33]: 45.3%; viability, T/C [25]: 72.1%; viability, T/C [26]: 68.4%; viability, T/C [27]: 46.2%; viability, T/C [28]: 35.5%; viability, T/C [29]: 33.7%; viability, T/C [34]: 29.2%
CC(=O)OC12COC1CC(O)C1(C)C(=O)C(O)C3=C(C)C(OC(=O)C(O)C(NC(=O)OC(C)(C)C)c4ccccc4)CC(O)(C(OC(=O)c4ccccc4)C21)C3(C)C (stereo not given) + C=CC(=O)N1CCN(c2nc(OCC3CCCN3C)nc3c2CCN(c2cccc4cccc(C)c24)C3)CC1CC#N	> 3.16 µM	> 3.16 µM	> 3.16 µM	> 3.16 µM	78.7%	70.4%	81.7%	95%	130%	52.9%	68.8%	75.1%	81.3%	87.9%	82.2%	82.7%	83.3%	113%	112%	81.4%	IC50 (second compound 0.0316 µM): > 3.16 µM; viability, T/C (second compound 0.0316 µM, first compound 0.01 µM): 83.9%; viability, T/C (second compound 0.0316 µM, first compound 0.0316 µM): 72.8%; viability, T/C (second compound 0.0316 µM, first compound 0.1 µM): 71.7%; viability, T/C (second compound 0.0316 µM, first compound 0.316 µM): 80.5%; viability, T/C (second compound 0.0316 µM, first compound 1 µM): 93%; viability, T/C (second compound 0.0316 µM, first compound 3.16 µM): 110%; viability, T/C [1]: 79.6%; viability, T/C [7]: 69.2%; viability, T/C [13]: 71%; viability, T/C [19]: 83.2%; viability, T/C [21]: 76.8%; viability, T/C [22]: 74.3%; viability, T/C [23]: 102%; viability, T/C [24]: 107%
